Target: human adenosine A2a receptor (Homo sapiens (Human), UniProt P29274)
Experiment: A2a receptor binding affinity, [3H]-NECA radioligand binding test
Settings: [3H]-NECA 37 nM; membrane from HEK-293 cells transfected with human adenosine A2a receptor
Outline: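 IC50 values (μM) come from displacement of [3H]-NECA, used at 37 nM final, on human A2a receptor membranes from transfected HEK-293 cells. Incubation lasted one hour at room temperature in Tris/MgCl2/EDTA buffer, pH 7.4; filter-bound radioactivity was counted by scintillation.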

Chain of human adenosine A2a receptor (P29274 whole entry): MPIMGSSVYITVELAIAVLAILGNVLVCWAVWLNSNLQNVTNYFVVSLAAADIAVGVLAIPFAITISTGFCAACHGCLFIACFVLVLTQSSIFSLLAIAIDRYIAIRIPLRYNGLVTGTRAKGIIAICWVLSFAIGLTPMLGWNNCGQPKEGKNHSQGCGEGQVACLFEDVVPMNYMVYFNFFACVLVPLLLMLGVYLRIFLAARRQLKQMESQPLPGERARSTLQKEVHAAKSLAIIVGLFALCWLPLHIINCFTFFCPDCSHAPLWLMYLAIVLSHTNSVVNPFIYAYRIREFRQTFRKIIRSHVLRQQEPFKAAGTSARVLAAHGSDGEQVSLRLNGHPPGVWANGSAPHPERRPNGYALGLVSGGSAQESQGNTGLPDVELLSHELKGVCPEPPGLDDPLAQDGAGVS

Row | IC50 [nM] | Compound
1 | 20 | CCCCN1CCN(C(=O)[C@@H](Nc2nc(N)n3nc(-c4ccco4)nc3n2)C2CCC2)CC1 [Example 177, (S)-2-((7-amino-2-(furan-2-yl)-[1,2,4]triazolo[1,5-a][1,3,5]triazin-5-yl)amino)-1-(4-butylpiperazin-1-yl)-2-cyclobutylethan-1-one]
2 | 0.125 | Nc1nc(N[C@@H](Cc2ccccc2)C(=O)N2CCN(Cc3ccc(F)cc3)CC2)nc2nc(-c3ccco3)nn12 [Example 18, (S)-2-((7-amino-2-(furan-2-yl)-[1,2,4]triazolo[1,5-a][1,3,5]triazin-5-yl)amino)-1-(4-(4-fluorobenzyl)piperazin-1-yl)-3-phenylpropan-1-one]
3 | 10 | C[C@H](Nc1nc(N)n2nc(-c3ccco3)nc2n1)C(=O)N1CCN(CC(F)(F)F)CC1 [Example 25, (S)-2-((7-amino-2-(furan-2-yl)-[1,2,4]triazolo[1,5-a][1,3,5]triazin-5-yl)amino)-1-(4-(2,2,2-trifluoroethyl)piperazin-1-yl)propan-1-one]
4 | 2 | Nc1nc(N2CCC[C@H]2C(=O)N2CCC3(CC2)CN(C(=O)Nc2ccccc2)C3)nc2nc(-c3ccco3)nn12 [Example 183, 7-((7-amino-2-(furan-2-yl)-[1,2,4]triazolo[1,5-a][1,3,5]triazin-5-yl)-L-prolyl)-N-phenyl-2,7-diazaspiro[3.5]nonane-2-carboxamide]
5 | 1 | Nc1nc(N[C@@H](Cc2ccccc2)C(=O)N2CCC(Cc3ccccc3)CC2)nc2nc(-c3ccco3)nn12 [Example 2]
6 | 7 | Nc1nc(N2CCC[C@H]2C(=O)N2CCN(Cc3ccccc3)CC2)nc2nc(-c3ccco3)nn12 [Example 27, (S)-(1-(7-amino-2-(furan-2-yl)-[1,2,4]triazolo[1,5-a][1,3,5]triazin-5-yl)pyrrolidin-2-yl)(4-benzylpiperazin-1-yl)methanone]
7 | 11 | C[C@H]1CN(C(=O)Nc2ccccc2)CCN1C(=O)[C@@H]1CCCN1c1nc(N)n2nc(-c3ccco3)nc2n1 [Example 181, (S)-4-((7-amino-2-(furan-2-yl)-[1,2,4]triazolo [1,5-a][1,3,5]triazine-5-yl)-L-prolyl)-3-methyl-N-phenylpiperazin-1-carboxamide]
8 | 4 | Nc1nc(N2CCC[C@H]2C(=O)N2CC3(CCN(C(=O)c4ccccc4)CC3)C2)nc2nc(-c3ccco3)nn12 [Example 160, (2-((7-amino-2-(furan-2-yl)-[1,2,4]triazolo[1,5-a][1,3,5]triazin-5-yl)-L-prolyl)-2,7-diazaspiro[3.5]nonan-7-yl)(phenyl)methanone]
9 | 9 | Nc1nc(N2CCC[C@H]2C(=O)N2CCC(C3CCN(C(=O)c4ccccc4)CC3)CC2)nc2nc(-c3ccco3)nn12 [Example 161, (1′-((7-amino-2-(furan-2-yl)-[1,2,4]triazolo[1,5-a][1,3,5]triazin-5-yl)-L-prolyl)-[4,4′-bipiperidin]-1-yl)(phenyl)methanone]
10 | 20 | Nc1nc(N[C@@H](Cc2ccccc2)C(=O)N2CCCN(Cc3ccccc3)CC2)nc2nc(-c3ccco3)nn12 [Example 20, (S)-2-((7-amino-2-(furan-2-yl)-[1,2,4]triazolo[1,5-a][1,3,5]triazin-5-yl)amino)-1-(4-benzyl-1,4-diazepan-1-yl)-3-phenylpropan-1-one]

The next lines start with the compound.

Row | Compound | IC50 [nM]
11 | Cc1ccc(-c2nc3nc(N4CCC[C@H]4C(=O)N4CCN(c5nccs5)CC4)nc(N)n3n2)o1 [Example 202, 2-(4-((7-amino-2-(5-methylfuran-2-yl)-[1,2,4]triazolo[1,5-a][1,3,5]triazin-5-yl)-L-prolyl)piperazin-1-yl)thiazole] | 7
12 | Nc1nc(N2CCC[C@H]2C(=O)N2CCN(C(=O)CC(F)(F)F)CC2)nc2nc(-c3ccco3)nn12 [Example 73, 1-(4-((7-amino-2-(furan-2-yl)-[1,2,4]triazolo[1,5-a][1,3,5]triazin-5-yl)-L-prolyl)piperazin-1-yl)-3,3,3-trifluoropropan-1-one] | 11
13 | Nc1nc(N2CCC[C@H]2C(=O)N2CCN(C3CCC(C(F)(F)F)CC3)CC2)nc2nc(-c3ccco3)nn12 (stereo partly drawn) [Example 155, (S)-(1-(7-amino-2-(furan-2-yl)-[1,2,4]triazolo[1,5-a][1,3,5]triazin-5-yl)pyrrolidin-2-yl)(4-(4-(trifluoromethyl)cyclohexyl)piperazin-1-yl)methanone] | 11
14 | Nc1nc(N2CCC[C@H]2C(=O)N2CCN(CC3(C(F)(F)F)CCCCC3)CC2)nc2nc(-c3ccco3)nn12 [Example 285] | 0.2
15 | Nc1nc(N2CCC[C@H]2C(=O)N2CCN(c3ncc4c(n3)COC4)CC2)nc2nc(-c3ccco3)nn12 [Example 384, 2-(4-((7-amino-2-(furan-2-yl)-[1,2,4]triazolo[1,5-a][1,3,5]triazin-5-yl)-L-prolyl)piperazin-1-yl)-5,7-dihydrofuro[3,4-d]pyrimidine] | 0.5
16 | Cc1ccc(-c2nc3nc(N4CC[C@H]4C(=O)N4CCN(c5ncccn5)CC4)nc(N)n3n2)o1 [Example 210, (S)-(1-(7-amino-2-(5-methylfuran-2-yl)-[1,2,4]triazolo[1,5-a][1,3,5]triazin-5-yl)azetidin-2-yl)(4-(pyrimidin-2-yl)piperazin-1-yl)methanone] | 1
17 | Cc1ccc(-c2nc3nc(N4CC[C@H]4C(=O)N4CCN(Cc5ccc(F)cc5F)CC4)nc(N)n3n2)o1 [Example 208, (S)-(1-(7-amino-2-(5-methylfuran-2-yl)-[1,2,4]triazolo[1,5-a][1,3,5]triazin-5-yl)azetidin-2-yl)(4-(2,4-difluorobenzyl)piperazin-1-yl)methanone] | 3
18 | CC(C)(CN1CCN(C(=O)[C@@H]2CCCN2c2nc(N)n3nc(-c4ccco4)nc3n2)CC1)C(F)(F)F [Example 282, (S)-(1-(7-amino-2-(furan-2-yl)-[1,2,4]triazolo[1,5-a][1,3,5]triazin-5-yl)pyrrolidin-2-yl)(4-(3,3,3-trifluoro-2,2-dimethylpropyl)piperazin-1-yl)methanone] | 6
19 | CCCCN1CCN(C(=O)[C@@H]2CCCN2c2nc(N)c3nc(-c4ccc(C)o4)sc3n2)CC1 [Example 243, (S)-(1-(7-amino-2-(5-methylfuran-2-yl)thiazolo[5,4-d]pyrimidin-5-yl)pyrrolidin-2-yl)(4-butylpiperazin-1-yl)methanone] | 14
20 | Nc1nc(N2CCC[C@H]2C(=O)N2CCC3(CC2)CN(Cc2ccc(F)cc2F)C3)nc2nc(-c3ccco3)nn12 [Example 52, (S)-(1-(7-amino-2-(furan-2-yl)-[1,2,4]triazolo[1,5-a][1,3,5]triazin-5-yl)pyrrolidin-2-yl)(2-(2,4-difluorobenzyl)-2,7-diazaspiro[3.5]nonan-7-yl)methanone] | 16
21 | CC(C)(F)CN1CCC(C2CCN(C(=O)[C@@H]3CCN3c3cc4nc(-c5ccco5)nn4c(N)n3)CC2)CC1 [Example 382, (S)-(1-(5-amino-2-(furan-2-yl)-[1,2,4]triazolo[1,5-c]pyrimidin-7-yl)azetidin-2-yl)(1′-(2-fluoro-2-methylpropyl)-[4,4′-bipiperidin]-1-yl)methanone] | 3
22 | Nc1nc(N2CCC[C@H]2C(=O)N2CCN(C3COC3)CC2)cc2nc(-c3ccco3)nn12 [Example 404] | 18
23 | CCC(F)(F)CN1CCN(C(=O)[C@@H]2CCN2c2nc(N)n3nc(-c4ccco4)nc3n2)CC1 [Example 254, (S)-(1-(7-amino-2-(furan-2-yl)-[1,2,4]triazolo[1,5-a][1,3,5]triazin-5-yl)azetidin-2-yl)(4-(2,2-difluorobutyl)piperazin-1-yl)methanone] | 12
24 | Nc1nc(N2CCC[C@H]2C(=O)N2CCN(C(=O)C3CCS(=O)(=O)CC3)CC2)nc2nc(-c3ccco3)nn12 [Example 106] | 7
25 | Nc1nc(N2CCC[C@H]2C(=O)N2CCC3(CC2)CN(CC(F)(F)F)C3)nc2nc(-c3ccco3)nn12 [Example 362, (S)-(1-(7-amino-2-(furan-2-yl)-[1,2,4]triazolo[1,5-a][1,3,5]triazin-5-yl)pyrrolidin-2-yl)(2-(2,2,2-trifluoroethyl)-2,7-diazaspiro[3.5]nonan-7-yl)methanone] | 30
26 | Nc1nc(N2CCC[C@H]2C(=O)N2CCN(C(=O)c3ccccc3)CC2)nc2nc(-c3nccs3)nn12 [Example 192] | 17
27 | CC(C)(F)CN1CCN(C(=O)[C@@H]2CCN2c2nc(N)n3nc(-c4ccco4)nc3n2)CC1 [Example 108, (S)-(1-(7-amino-2-(furan-2-yl)-[1,2,4]triazolo[1,5-a][1,3,5]triazin-5-yl)azetidin-2-yl)(4-(2-fluoro-2-methylpropyl)piperazin-1-yl)methanone] | 9
28 | CC(C)(C)N1CCN(C(=O)[C@@H]2CCCN2c2nc(N)n3nc(-c4ccco4)nc3n2)CC1 [Example 137, (S)-(1-(7-amino-2-(furan-2-yl)-[1,2,4]triazolo[1,5-a][1,3,5]triazin-5-yl)pyrrolidin-2-yl)(4-(tert-butyl)piperazin-1-yl)methanone] | 48
29 | Nc1nc(N2CCC[C@H]2C(=O)N2CCN(Cc3ccc(F)cc3F)CC2)nc2nc(-c3ccco3)nn12 [Example 16, (S)-(1-(7-amino-2-(furan-2-yl)-[1,2,4]triazolo[1,5-a][1,3,5]triazin-5-yl)pyrrolidin-2-yl)(4-(2,4-difluorobenzyl)piperazin-1-yl)methanone] | 1.95
30 | CC1CN(C(=O)[C@@H]2CCCN2c2nc(N)n3nc(-c4ccco4)nc3n2)CC(C)N1Cc1ccc(F)cc1F (stereo partly drawn) [Example 49, ((S)-1-(7-amino-2-(furan-2-yl)-[1,2,4]triazolo[1,5-a][1,3,5]triazin-5-yl)pyrrolidin-2-yl)(4-(2,4-difluorobenzyl)-3,5-dimethylpiperazin-1-yl)methanone] | 3
31 | CC(F)(F)CN1CCN(C(=O)[C@@H]2CCN2c2nc(N)n3nc(-c4ccco4)nc3n2)CC1 [Example 253, (S)-(1-(7-amino-2-(furan-2-yl)-[1,2,4]triazolo[1,5-a][1,3,5]triazin-5-yl)azetidin-2-yl)(4-(2,2-difluoropropyl)piperazin-1-yl)methanone] | 7

Reference: patent US20240217978A1 (CHONG KUN DANG PHARMACEUTICAL CORP., priority 2021, published 2024)
